Laboratory results published in ChEMBL document CHEMBL1201862, “PubChem BioAssay data set” (2004).
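Results reflect a 48-hour exposure of cells in 96-well plates to compound at five concentrations. Here, GI50 denotes the concentration required for 50% inhibition of growth.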 The source made the active and inactive calls. No stated cut-off is given here; in the data, active = GI50 up to about 1.1 µM and inactive = higher. Where a SMILES comes first, the peptide text is derived from it. The star is where a group is joined. OSu = O=C1CCC(=O)N1O*; OBn = c1ccc(CO*)cc1; Bn = c1ccc(C*)cc1

Tests used:
Experiment in all cases: DTP human tumour cell line panel, 48 h
SK-MEL-2 = system: SK-MEL-2
CCRF-CEM = system: CCRF-CEM
SF-268 = system: SF-268
K562 = system: K562
OVCAR-8 = system: OVCAR-8
SNB-75 = system: SNB-75
EKVX = system: EKVX
OVCAR-5 = system: OVCAR-5
NCI-H522 = system: NCI-H522
RPMI-8226 = system: RPMI-8226
NCI/ADR-RES = system: NCI/ADR-RES
KM12 = system: KM12
SK-MEL-28 = system: SK-MEL-28
A549 = system: A549
DU-145 = system: DU-145
MDA-N = system: MDA-N
OVCAR-4 = system: OVCAR-4
PC-3 = system: PC-3
MCF7 = system: MCF7
HCC 2998 = system: HCC 2998

SMILES | GI50 (SK-MEL-2) | GI50 (CCRF-CEM) | GI50 (SF-268) | GI50 (K562) | GI50 (OVCAR-8) | GI50 (SNB-75) | GI50 (EKVX) | GI50 (OVCAR-5) | GI50 (NCI-H522) | GI50 (RPMI-8226) | GI50 (NCI/ADR-RES) | GI50 (KM12) | GI50 (SK-MEL-28) | GI50 (A549) | GI50 (DU-145) | GI50 (MDA-N) | GI50 (OVCAR-4) | GI50 (PC-3) | GI50 (MCF7) | GI50 (HCC 2998)
CC12C(=O)CC(CC1=O)C2(C)C | > 100 µM (inactive) | > 100 µM (inactive) | > 100 µM (inactive) | > 100 µM (inactive) | > 100 µM (inactive) | > 100 µM (inactive) | > 100 µM (inactive) | > 100 µM (inactive) | > 100 µM (inactive) | > 100 µM (inactive) | > 100 µM (inactive) | > 100 µM (inactive) | > 100 µM (inactive) | > 100 µM (inactive) | > 100 µM (inactive) | > 100 µM (inactive) | > 100 µM (inactive) | > 100 µM (inactive) | > 100 µM (inactive) | –
CC(C)CC(NC(=O)C(N)CCC(=O)OCc1ccccc1)C(=O)NC(COCc1ccccc1)C(=O)NC(Cc1ccccc1)C(=O)ON1C(=O)CCC1=O (configuration not stated) (H-E(OBn)LS(Bn)F-OSu; configuration not given here) | 30.8 µM (inactive) | 26.6 µM (inactive) | 48.3 µM (inactive) | – | 31.6 µM (inactive) | 35.7 µM (inactive) | 32.1 µM (inactive) | 28.8 µM (inactive) | 18.5 µM (inactive) | 19.9 µM (inactive) | 28.5 µM (inactive) | 32.1 µM (inactive) | 22.1 µM (inactive) | 33.6 µM (inactive) | 27.7 µM (inactive) | 21.4 µM (inactive) | 27.8 µM (inactive) | 24.5 µM (inactive) | 27.4 µM (inactive) | –
[N-]=[N+]=Nc1ccccc1-c1ccccc1[N+](=O)[O-] | 27.2 µM (inactive) | – | 36.1 µM (inactive) | 31.3 µM (inactive) | 73.3 µM (inactive) | 50 µM (inactive) | 39.4 µM (inactive) | > 100 µM (inactive) | 14.9 µM (inactive) | 26 µM (inactive) | 29.9 µM (inactive) | 49.2 µM (inactive) | > 100 µM (inactive) | > 100 µM (inactive) | 88.5 µM (inactive) | 30.9 µM (inactive) | 72.9 µM (inactive) | 37.8 µM (inactive) | 52 µM (inactive) | –
CCOC(=O)CCC(NC(=O)c1ccc(NCc2ccc3nc(OC)c(OC)nc3c2)c2ccccc12)C(=O)OCC (configuration not stated) | > 100 µM (inactive) | – | 42.7 µM (inactive) | > 100 µM (inactive) | 57.5 µM (inactive) | 38.8 µM (inactive) | > 100 µM (inactive) | > 100 µM (inactive) | > 100 µM (inactive) | – | > 100 µM (inactive) | > 100 µM (inactive) | > 100 µM (inactive) | > 100 µM (inactive) | > 100 µM (inactive) | > 100 µM (inactive) | 43.1 µM (inactive) | 61.4 µM (inactive) | 84.9 µM (inactive) | > 100 µM (inactive)
CCN(CC)CCn1c(C(C)(C)C)nc2ccccc21 | – | > 100 µM (inactive) | > 100 µM (inactive) | > 100 µM (inactive) | > 100 µM (inactive) | > 100 µM (inactive) | > 100 µM (inactive) | > 100 µM (inactive) | 38.6 µM (inactive) | > 100 µM (inactive) | > 100 µM (inactive) | > 100 µM (inactive) | > 100 µM (inactive) | > 100 µM (inactive) | > 100 µM (inactive) | > 100 µM (inactive) | > 100 µM (inactive) | > 100 µM (inactive) | > 100 µM (inactive) | > 100 µM (inactive)
COC(=O)C1=CO[C@@H](OC2OC(CO)C(O)C(O)C2O)[C@H]2[C@@H](C)[C@@H](O)[C@@H](O)[C@@H]12 (some centres not stated) | > 100 µM (inactive) | – | > 100 µM (inactive) | – | > 100 µM (inactive) | > 100 µM (inactive) | > 100 µM (inactive) | > 100 µM (inactive) | > 100 µM (inactive) | > 100 µM (inactive) | > 100 µM (inactive) | > 100 µM (inactive) | > 100 µM (inactive) | > 100 µM (inactive) | > 100 µM (inactive) | > 100 µM (inactive) | > 100 µM (inactive) | > 100 µM (inactive) | > 100 µM (inactive) | > 100 µM (inactive)
CC(C)(C)OC(=O)NCC(=O)N1CCCN(C(=O)CNC(=O)OC(C)(C)C)CC1 | > 100 µM (inactive) | – | > 100 µM (inactive) | > 100 µM (inactive) | > 100 µM (inactive) | > 100 µM (inactive) | > 100 µM (inactive) | > 100 µM (inactive) | > 100 µM (inactive) | > 100 µM (inactive) | > 100 µM (inactive) | > 100 µM (inactive) | > 100 µM (inactive) | > 100 µM (inactive) | > 100 µM (inactive) | > 100 µM (inactive) | > 100 µM (inactive) | > 100 µM (inactive) | > 100 µM (inactive) | > 100 µM (inactive)
Cc1ccccc1C(=O)C#Cc1cn(C2CC(O)C(CO)O2)c(=O)[nH]c1=O (configuration not stated) | > 100 µM (inactive) | 20.5 µM (inactive) | > 100 µM (inactive) | 57 µM (inactive) | > 100 µM (inactive) | > 100 µM (inactive) | > 100 µM (inactive) | – | 14.7 µM (inactive) | > 100 µM (inactive) | > 100 µM (inactive) | > 100 µM (inactive) | > 100 µM (inactive) | > 100 µM (inactive) | > 100 µM (inactive) | > 100 µM (inactive) | > 100 µM (inactive) | > 100 µM (inactive) | > 100 µM (inactive) | > 100 µM (inactive)
COc1c(O)c(OC)c2oc(-c3ccc(O)cc3)c(OC)c(=O)c2c1O | 42.5 µM (inactive) | 37.5 µM (inactive) | 8.73 µM (inactive) | 55.6 µM (inactive) | 38 µM (inactive) | – | 97.5 µM (inactive) | > 100 µM (inactive) | 26.1 µM (inactive) | 56.9 µM (inactive) | 61 µM (inactive) | 88.5 µM (inactive) | 81.8 µM (inactive) | 44.2 µM (inactive) | 29.3 µM (inactive) | 79.4 µM (inactive) | – | 48.6 µM (inactive) | 41.7 µM (inactive) | 32 µM (inactive)
Clc1cccc(-c2sc(-c3cccs3)cc2Cc2cccs2)c1 | – | > 10 µM (inactive) | > 10 µM (inactive) | > 10 µM (inactive) | > 10 µM (inactive) | > 10 µM (inactive) | > 10 µM (inactive) | – | > 10 µM (inactive) | > 10 µM (inactive) | > 10 µM (inactive) | > 10 µM (inactive) | > 10 µM (inactive) | > 10 µM (inactive) | > 10 µM (inactive) | > 10 µM (inactive) | > 10 µM (inactive) | > 10 µM (inactive) | 3.71 µM (inactive) | > 10 µM (inactive)
Oc1ccc(Cl)cc1C1=Nn2c(COc3ccc4c(c3)CCCC4)nnc2SC1 | 15.4 µM (inactive) | 17 µM (inactive) | 16.4 µM (inactive) | 10.5 µM (inactive) | 14.9 µM (inactive) | – | 15.9 µM (inactive) | 17.2 µM (inactive) | 6.84 µM (inactive) | 4.99 µM (inactive) | 14.8 µM (inactive) | 14.6 µM (inactive) | 0.129 µM (active) | 25.5 µM (inactive) | 18.3 µM (inactive) | 14.6 µM (inactive) | 1.44 µM (inactive) | 10.6 µM (inactive) | 14.7 µM (inactive) | –
O=C1CSC(c2ccc([N+](=O)[O-])cc2)N1c1ccc(-n2c(-c3ccccc3)nc3ccccc3c2=O)cc1 (configuration not stated) | > 100 µM (inactive) | > 100 µM (inactive) | 38.5 µM (inactive) | 86.9 µM (inactive) | > 100 µM (inactive) | – | > 100 µM (inactive) | > 10 µM (inactive) | 40.8 µM (inactive) | > 100 µM (inactive) | 60.7 µM (inactive) | 31.7 µM (inactive) | > 100 µM (inactive) | > 100 µM (inactive) | > 100 µM (inactive) | > 100 µM (inactive) | 21.3 µM (inactive) | > 100 µM (inactive) | 73.5 µM (inactive) | 41 µM (inactive)
Cc1ccc(S(=O)(=O)C2=C(C(C)C)N=NC2(C)C)cc1 | > 100 µM (inactive) | – | > 100 µM (inactive) | 28.6 µM (inactive) | > 100 µM (inactive) | 95.3 µM (inactive) | > 100 µM (inactive) | > 100 µM (inactive) | 36 µM (inactive) | 9.14 µM (inactive) | 64.7 µM (inactive) | > 100 µM (inactive) | > 100 µM (inactive) | 81.3 µM (inactive) | 87.1 µM (inactive) | 80 µM (inactive) | 72.9 µM (inactive) | > 100 µM (inactive) | 62.7 µM (inactive) | 73.6 µM (inactive)
CN1C(CC(O)c2ccccc2)CCCC1CC(O)(c1ccccc1)c1ccccc1 (configuration not stated) | – | 19.8 µM (inactive) | 18.7 µM (inactive) | 29 µM (inactive) | 20.8 µM (inactive) | 19.1 µM (inactive) | 26.4 µM (inactive) | 15 µM (inactive) | 19.9 µM (inactive) | 17.1 µM (inactive) | 16.9 µM (inactive) | 18.5 µM (inactive) | 16 µM (inactive) | 22.1 µM (inactive) | 20.8 µM (inactive) | 18.5 µM (inactive) | – | 18.2 µM (inactive) | 20.9 µM (inactive) | 22.9 µM (inactive)
CCOC(=O)CNC1=NNS(=O)(=O)c2ccccc21 | – | 59.8 µM (inactive) | > 100 µM (inactive) | > 100 µM (inactive) | > 100 µM (inactive) | > 100 µM (inactive) | > 100 µM (inactive) | > 100 µM (inactive) | > 100 µM (inactive) | > 100 µM (inactive) | > 100 µM (inactive) | > 100 µM (inactive) | > 100 µM (inactive) | > 100 µM (inactive) | > 100 µM (inactive) | > 100 µM (inactive) | > 100 µM (inactive) | > 100 µM (inactive) | > 100 µM (inactive) | > 100 µM (inactive)
